Measured values as given in patent US12544575B2, “Bioelectric neuromodulation for hematopoiesis regulation during chemotherapy” (THE REGENTS OF THE UNIVERSITY OF CALIFORNIA, priority 2020, dated 2026).

Assays:
Assay type in all cases: in vivo, rat
[1] = system: SD rats; test: Survival of rats after two cycles of carboplatin chemotherapy; settings: after two cycles of carboplatin over a period of 60 days; carboplatin 60 mg/kg intraperitoneally on day 0, ES or G-CSF on day 2
Experimental: (§1) In FIG. 7A is seen white blood cell concentration for each of the five groups of rats which were tested over two cycles of testing. Male SD rats (weighing 350 to 400 g) were used for studying chemotherapy-induced cytopenia. The rats were divided into five experimental groups: control group; electrical stimulation group; carboplatin group; carboplatin+electrical stimulation (ES) group; and carboplatin+G-CSF group.
(§2) For each cycle of treatment, a single dose of carboplatin (e.g., 60 mg/kg) or vehicle (saline) was injected intraperitoneally on day 0. On day 2, electrical autonomic nerve stimulation was performed for a specified period (e.g., 60 minutes), or a single dose of G-CSF was administered on the rats according to the different experimental groups. In the example treatment each cycle of treatment is considered to be 28 days, however, a treatment cycle could span from one to eight weeks.
FIG. 10 illustrates an example embodiment 590 of results indicating survival rates of the rats in the same five groups (control, ES, carboplatin, carboplatin+ES, and carboplatin+G-CSF) as previously described after two cycles of carboplatin over a period of 60 days.

[2] = system: SD rats; test: Chemotherapy-induced cytopenia, complete blood count of peripheral blood
Experimental: as §1, §2
Blood samples for complete blood count (CBC) were collected in EDTA tubes on various days (day 0, 2, 7, 10, 14, 17, 21, and 28).

[3] = system: bone marrow of SD rats; test: Immunofluorescence staining of the bone marrow microenvironment (nestin, TH, CD31)
Experimental: The testing utilized immunofluorescence staining of nestin for mesenchymal stem cell, tyrosine hydroxylase (TH+) for sympathetic nerve, and CD31 for vascular to evaluate the alteration of bone marrow microenvironment after […] of carboplatin.
After two cycles of chemotherapy, exemplified as using carboplatin with different dosages of 40 mg/kg and 60 mg/kg, the bone marrow of the rats from the five experimental groups was analyzed by immunofluorescence to evaluate the alteration of the bone marrow microenvironment. The bone marrow tissue of rats was stained with nestin, TH and anti-CD31 antibody for mesenchymal stem cell, sympathetic nerve and endothelial cell, respectively.

[4] = after three cycles of carboplatin
[5] = after two cycles of carboplatin, 40 mg/kg and 60 mg/kg

N.N.O=C([O-])C1(C(=O)[O-])CCC1.[Pt+2] [carboplatin]
survival rate [1]: 37.5% | concentration of hemoglobin ([2]; after carboplatin administration, whether rescue by electrical stimulation or G-CSF): significantly decreased | platelet count compared to the control group ([2]; day 10 of the first and second cycle): significantly reduced | area of TH+/CD31 by immunofluorescence staining versus control group [3, 4]: lower levels | expression of TH+ in the sympathetic nerve [3, 4]: reduced expression | expression of nestin (mesenchymal stem cell) in comparison to the control group [3, 4]: more extensive expression | area of the sympathetic nerve along with arteriole compared to the control group [3, 5]: significantly decreased | mesenchymal stem cells compared to the control group [3, 5]: increased
